A short description of the series: in vitro. Conditions: for Vmax (SE), GA elimination: GA 2–50 μM, 10 min, pH 7.5, 37 °C, n = 7 × 2; for EE = Vmax/Km, GA elimination / Km: male, pH 7.5. On the procedure: As the parameters Vmax and Km were determined by the same experimental setup, the enzyme efficiency (EE) for the metabolic reactions is calculated as the ratio of Vmax to Km.
The metabolic system was similar to that we used in our earlier work[20] and is described in Supplementary information Note 1. […] The mixture was centrifuged (500 × g, 4 min) and supernatant treated as described below.
The supernatant (300 μL) obtained following centrifugation in the metabolism experiments was added to a cob(I)alamin solution (200 μL) in water. The reaction was continued under argon atmosphere for 20 min, and subsequently a gentle stream of air was passed to oxidize any reduced cobalamin. Analysis of the solution was performed by liquid chromatography tandem mass spectrometry (LC-MS/MS). The MS was operated using electrospray positive-ionization (ESI^+) and quantification performed using multiple reaction monitoring (MRM) mode. Method for preparation of cob(I)alamin solution from hydroxocobalamin and analysis of the generated alkylcobalamins, GA-Cbl from GA and PO-Cbl from PO, were similar to our earlier work[8] and are described under Supplementary information Notes 2–4.
The area under MRM peaks from GA-Cbl and PO-Cbl were measured with Analyst software version 1.5 from AB Sciex. Using calibration curve obtained for GA using inactivated S9 as matrix, the concentrations of GA in the metabolism studies were determined as described earlier by us[8]. The metabolic data was used to obtain Lineweaver-Burk plot for graphical representation of studied enzyme kinetics. Apparent values for the respective maximum velocity (Vmax) of the enzymatic conversion, the Michaelis constant (Km) and standard error were estimated by nonlinear fitting using the Hill function in Origin version 2015 (OriginLab, Northampton, MA, USA).
To human or rat liver S9 fraction (150 μL, 1–5 mg proteins) at 4 °C in a 2 mL vial with a screw-tight cap were added aqueous KCl (0.15 M, 300 μL), MgSO4 (80 mM, 150 μL), glucose-6-phosphate (50 mM, 150 μL) and NADP (40 mM, 150 μL), and the volume was made up to 1.5 mL with pH 7.5 phosphate buffer. The mixture was incubated for 5 min at 37 °C prior to the addition of the substrate.

What is called Km is the concentration of substrate that gives half-maximal velocity.

On to `NC(=O)C1CO1` (racemic) [GA, rac-Glycidamide], for which the “Vmax (SE), GA elimination” value (Human S9) was 1.6 (0.7) nmol·mg protein^−1·min^−1. Also, where the note is “Rat S9 (male SD)”, the “Vmax (SE), GA elimination” value is 0.26 (0.02) nmol·mg protein^−1·min^−1. Under “liver S9, human vs. rat”, the “EE of elimination of GA, human compared to rat (times faster in human)” value is given as “ca. 1.5 times”. In addition, for the setting “liver S9, rat vs. human”, the “EE of oxidative formation of GA, rat compared to human (times faster in rat)” value was “ca. 4 times” and the “EE ratio of AA → GA to that of GAel, rat compared to human (times higher in rat)” value was “ca. 6 times”. Further, under “Sprague-Dawley, rat”, the “EE = Vmax/Km, GA elimination” value was 43 μL·mg protein^−1·min^−1 and the Km is 6 µM. Also, for the setting “human”, the “EE = Vmax/Km, GA elimination” value is given as 62 μL·mg protein^−1·min^−1 and the Km turned out to be 26 µM.

The values above are taken from PMC5730592, “Parallelogram based approach for in vivo dose estimation of genotoxic metabolites in humans with relevance to reduction of animal experiments” (Scientific Reports, 2017).
